Our source for the IC50 values is patent publication US11286268B1, “EIF4E-inhibiting compounds and methods” (EFFECTOR THERAPEUTICS, INC., priority 2019, dated 2022).

The target of this test is recombinant eIF4E (Homo sapiens (Human), UniProt P06730). Kind of test: Fluorescence polarization competition assay for eIF4E binding potency. The method, boiled down:
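FP readout; IC50 fit from 8-point, 3-fold series. 75 nM eIF4E + 20 nM ATTO-550-labelled m7GDP probe, Tris pH 7.5/NaCl/DTT/Tween buffer, 1% DMSO final. 30 min RT equilibration, light-protected.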
For orientation: Polarisation of emitted light reports the rotation of a fluorescent probe.

Where [1] appears, read: fluorescence polarization competition, 75 nM recombinant eIF4E, 20 nM EDA-m7GDP-ATTO-550, IC50 class, read-out: elF4E FP.
The mark [2] stands for this setting: inhibition of eIF4E/EDA-m7GDP-ATTO-550 binding by 50%, Table 4B calculated values, read-out: IC50.
The mark [3] stands for this setting: inhibition of eIF4E/EDA-m7GDP-ATTO-550 binding, calculated IC50 values, Table 4B, read-out: IC50.

Where two headings read alike, the source gives them in different places.

recombinant eIF4E, sequence (P06730 whole entry): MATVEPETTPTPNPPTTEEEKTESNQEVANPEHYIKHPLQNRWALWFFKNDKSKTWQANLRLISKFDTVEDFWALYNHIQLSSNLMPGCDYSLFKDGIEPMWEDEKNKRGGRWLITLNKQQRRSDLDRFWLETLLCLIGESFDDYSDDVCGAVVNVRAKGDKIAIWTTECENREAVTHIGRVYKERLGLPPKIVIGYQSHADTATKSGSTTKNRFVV

As for `Cc1nc2cnc(/C=C/CN3CCC(F)(F)CC3)c(C#N)c2c(=O)n1CCOc1ccc(Cl)cc1-c1ccnc2c(C(=O)O)csc12` [compound 1121], the IC50 was under 0.05 µM under setting [1] and 0.00926 µM under setting [2]. The corresponding values for `Cc1cc(-c2cc(Cl)ccc2OCCn2c(C)nc3cc(Cl)c(-c4cncc(F)c4)c(C#N)c3c2=O)c2scc(C(=O)O)c2n1` [compound 394] are under 0.05 µM and 0.0218 µM. The matching figures for `Cc1nc2cc(C(F)(F)F)c(CN3CCCCC3)c(C#N)c2c(=O)n1CCOc1ccc(Cl)cc1-c1ccnc2c(C(=O)O)csc12` [compound 528]: under 0.05 µM and 0.0271 µM.

`Cc1cc(-c2cc(Cl)ccc2OCCn2c(C)nc3cc(C(F)(F)F)c(N4CCCC4)c(C#N)c3c2=O)c2scc(C(=O)O)c2n1` [compound 422]: the IC50 by setting is: under setting [1], under 0.05 µM; under setting [2], 0.0115 µM.

For `CCc1ccc(-c2c(C(F)(F)F)cc3nc(C)n(CCOc4ccc(Cl)cc4-c4cc(C)nc5c(C(=O)O)csc45)c(=O)c3c2C#N)cn1` [compound 774], the IC50 is under 0.05 µM under setting [1] and 0.00829 µM under setting [2]. The matching figures for `Cc1nc2cnc(N3CCN(C4CC4)CC3)c(C#N)c2c(=O)n1CC#Cc1ccc(Cl)cc1-c1ccnc2c(C(=O)O)csc12` [compound 1162]: under 0.05 µM and 0.0216 µM.

Consider `Cc1cc(-c2cc(Cl)ccc2OCCn2c(C)nc3cc(-c4cccnc4)c(C)c(C#N)c3c2=O)c2scc(C(=O)O)c2n1` [compound 759], for which the IC50 was 0.05 to 1 µM under setting [1] and 0.0529 µM under setting [2]. For `Cc1cccc(-c2ncc3nc(C)n(CCOc4ccc(Cl)cc4-c4cc(C)nc5c(C(=O)O)csc45)c(=O)c3c2C#N)c1` [compound 945], the IC50 reads like this: under setting [1], under 0.05 µM; under setting [2], 0.0389 µM.

Regarding `Cc1nc2cnc(N(C)C3CCN(CC(F)(F)F)CC3)c(C#N)c2c(=O)n1CC#Cc1ccc(Cl)cc1-c1ccnc2c(C(=O)NS(=O)(=O)Cc3ccccn3)csc12` [compound 1673], the IC50 under setting [3] is 0.00722 µM. Regarding `CC(=O)N(C)c1ncc2nc(C)n(CCOc3ccc(Cl)cc3-c3cc(C)nc4c(C(=O)O)csc34)c(=O)c2c1C#N` [compound 1053], the IC50 is under 0.05 µM under setting [1] and 0.00508 µM under setting [2]. On to `Cc1cc(-c2cc(Cl)ccc2OCCn2c(C)nc3cc(Cl)c(N4CCN(C)CC4)c(C#N)c3c2=O)c2sc(C)c(C(=O)O)c2n1` [compound 741], for which the IC50 runs as follows: under setting [1], under 0.05 µM; under setting [2], 0.0152 µM. The matching figures for `COc1cncc(-c2c(C(F)(F)F)cc3nc(C)n(CCOc4ccc(Cl)cc4-c4cc(C)nc5c(C(=O)O)csc45)c(=O)c3c2C#N)c1` [Compound 1060]: 0.05 to 1 µM and 0.0509 µM.

`Cc1cc(-c2cc(Cl)ccc2OCCn2c(C)nc3c(C)nc(-c4ccc(C(F)(F)F)cc4)c(C#N)c3c2=O)c2scc(C(=O)O)c2n1` [compound 926]: the IC50 was under 0.05 µM under setting [1] and 0.0183 µM under setting [2]. On to `Cc1cc(-c2cc(Cl)ccc2OCCn2c(C)nc3cc(C(F)(F)F)c(C4=CCN(C)CC4)c(C#N)c3c2=O)c2sc(C)c(C(=O)O)c2n1` [compound 1417], for which the IC50 under setting [3] is 0.0249 µM. Same read-out and setting: then `Cc1cc(-c2cc(Cl)ccc2OCCn2c(C)nc3c(C4COC4)ncc(C#N)c3c2=O)c2scc(C(=O)O)c2n1` [compound 1419], with 0.00676 µM.

`Cc1cc(-c2cc(Cl)ccc2OCCn2c(C)nc3cc(Cl)c(N4CC(O)C4)c(C#N)c3c2=O)c2scc(C(=O)O)c2n1` [compound 698]: the IC50 was under 0.05 µM under setting [1] and 0.0034 µM under setting [2]. The corresponding values for `Cc1nc2cc(C(F)(F)F)cc(C#N)c2c(=O)n1CCOc1ccc(Cl)cc1N1CCC(CC(=O)O)CC1` [compound 328] are over 1 µM and 1.32 µM. On to `Cc1nc2cnccc2c(=O)n1CCOc1ccc(Cl)cc1-c1cccc(P(=O)(O)O)c1` [150FC], for which the IC50 under setting [2] was 0.124 µM. On to `Cc1cc(-c2cc(Cl)ccc2OCCn2c(C)nc3cc(C(F)(F)F)c(-c4ccccc4CO)nc3c2=O)c2scc(C(=O)O)c2n1` [compound 346], for which the IC50 reads like this: under setting [1], under 0.05 µM; under setting [2], 0.0181 µM. In the case of `N#Cc1cc(C(F)(F)F)cc2nc(O)n(CCOc3ccc(Cl)cc3-c3cccc(C(=O)O)c3)c(=O)c12` [compound 186], the IC50 by setting is: under setting [1], 0.05 to 1 µM; under setting [2], 0.344 µM. Take `N#Cc1cc2c(=O)n(CCOc3ccc(Cl)cc3-c3cc(C(=O)O)c4ncccc4c3)cnc2cn1` [compound 100]: the IC50 was over 1 µM under setting [1] and 3.48 µM under setting [2].

Take `COC(=O)c1csc2c(-c3cc(Cl)ccc3C#CCn3c(C)nc4cnc(N(C)C5CCN(CC(F)F)CC5)c(C#N)c4c3=O)ccnc12` [compound 1113]: the IC50 under setting [1] is 0.05 to 1 µM and the IC50 under setting [2] is 0.14 µM. With `Cc1cc(-c2cc(Cl)ccc2OCCn2c(C)nc3cc(S(C)(=O)=O)c(N4CCN(C)CC4)c(C#N)c3c2=O)c2sc(C)c(C(=O)O)c2n1` [compound 1150], the IC50 was under 0.05 µM under setting [1] and 0.0046 µM under setting [2]. The corresponding values for `Cc1nc2ccc(S(=O)(=O)N3CCC3)c(C#N)c2c(=O)n1CCOc1ccc(Cl)cc1-c1ccnc2c(C(=O)O)csc12` [compound 248] are 0.05 to 1 µM and 0.0523 µM. Take `Cc1nc2cnc(N(C)[C@H]3CC[C@@H](N(C)CC(F)F)CC3)c(C#N)c2c(=O)n1CC#Cc1ccc(Cl)cc1-c1ccnc2c(C(=O)O)csc12` [compound 1896]: the IC50 under setting [3] was 0.0122 µM. Turning to `Cc1c([N+](=O)O)c2cc(C(F)(F)F)cc(C#N)c2c(=O)n1CCOc1ccc(Cl)cc1-c1ccnc2c(C(=O)O)csc12` [compound 270], the IC50 under setting [1] is under 0.05 µM. Take `Cc1cc(-c2cc(Cl)ccc2OCCn2c(C)nc3cnc(N(C)c4ccccc4)c(C#N)c3c2=O)c2scc(C(=O)O)c2n1` [compound 986]: the IC50 reads like this: under setting [1], under 0.05 µM; under setting [2], 0.0169 µM.

`Cc1cc(-c2cc(Cl)ccc2OCCn2c(C)nc3cc(C(F)(F)F)c(N4CCN(C5COC5)CC4)c(C#N)c3c2=O)c2scc(C(=O)O)c2n1` [compound 1242]: the IC50 runs as follows: under setting [1], under 0.05 µM; under setting [3], 0.00885 µM. For `Cc1cc(-c2cc(Cl)ccc2OCCn2c(C)nc3cc(C(F)(F)F)c(CN(C)C)c(C#N)c3c2=O)c2sc(C)c(C(=O)O)c2n1` [compound 670], the IC50 was under 0.05 µM under setting [1] and 0.018 µM under setting [2]. The matching figures for `N#Cc1cc2c(=O)n(CCOc3ccc(Cl)cc3-c3cc(CCO)cc(C(=O)O)c3)cnc2cn1` [compound 106]: over 1 µM and 1.38 µM. As for `Cc1nc2cnc(N(C)C3CCN([C@H]4C[C@H](OC(F)F)C4)CC3)c(C#N)c2c(=O)n1CC#Cc1ccc(Cl)cc1-c1ccnc2c(C(=O)NS(=O)(=O)c3ccncc3)csc12` [compound 1764], the IC50 under setting [3] is 0.019 µM. For the molecule `Cc1nc2c(N3CCN(CCF)C4CC43)ncc(C#N)c2c(=O)n1CCOc1ccc(Cl)cc1-c1ccnc2c(C(=O)O)csc12` (stereo not drawn) [compound 817], under setting [1], the IC50 is under 0.05 µM. Regarding `N#Cc1ccc(F)c2nc(C(F)F)n(CCOc3ccc(Cl)cc3-c3ccnc4c(C(=O)O)csc34)c(=O)c12` [compound 1941], the IC50 under setting [3] is 0.0616 µM. As to `Cc1nc2cnc(N(C)C3CCN(CC(C)(F)F)CC3)c(C#N)c2c(=O)n1CC#Cc1ccc(Cl)cc1-c1ccnc2c(C(=O)NS(=O)(=O)c3ccncc3)csc12` [compound 1143], the IC50 was under 0.05 µM under setting [1] and 0.0246 µM under setting [2].

With `Cc1nc2ccccc2c(=O)n1CCOc1ccc(Cl)cc1-c1cccc(C(=O)O)c1` [compound 72], the IC50 was over 1 µM under setting [1] and 3.1 µM under setting [2]. The corresponding values for `CNS(=O)(=O)c1ccc(C#N)c2c(=O)n(CCOc3ccc(Cl)cc3-c3ccnc4c(C(=O)O)csc34)c(C)nc12` [compound 238] are under 0.05 µM and 0.038 µM. The matching figures for `Cc1cc(-c2cc(Cl)ccc2OCCn2c(C)nc3c(C)ncc(C#N)c3c2=O)c2scc(C(=O)O)c2n1` [compound 673]: under 0.05 µM and 0.0253 µM. As to `N#Cc1cccc2nc(C(F)F)n(CCOc3ccc(Cl)cc3-c3cccc4c(C(=O)O)csc34)c(=O)c12` [compound 2017], under setting [3], the IC50 was 0.0506 µM.

Take `Cc1nc2cnc(N(C)C3CCN(CCC(F)(F)F)CC3)c(C#N)c2c(=O)n1CC#Cc1ccc(Cl)cc1-c1ccnc2c(C(=O)O)csc12` [compound 1520]: under setting [3], the IC50 was 0.0179 µM. For `COc1ccc(-c2c(Cl)cc3nc(C)n(CCOc4ccc(Cl)cc4-c4cc(C)nc5c(C(=O)O)csc45)c(=O)c3c2C#N)cn1` [compound 1061], the IC50 was under 0.05 µM under setting [1] and 0.00854 µM under setting [2].

Turning to `Cc1cc(-c2cc(Cl)ccc2OCCn2c(C)nc3cc(Cl)c(N(C)C)c(C#N)c3c2=O)c2scc(C(=O)O)c2n1` [compound 696], the IC50 was under 0.05 µM under setting [1] and 0.00894 µM under setting [2].

Turning to `CCN(c1ncc2nc(C)n(CC#Cc3ccc(Cl)cc3-c3ccnc4c(C(=O)NS(=O)(=O)c5ccncc5)csc34)c(=O)c2c1C#N)C1CCN([C@H]2C[C@H](OC(F)F)C2)CC1` [compound 1769], the IC50 under setting [3] is 0.0164 µM. Take `Cc1cc(-c2cc(Cl)ccc2OCCn2c(C)nc3cnc(N4CCc5ccccc54)c(C#N)c3c2=O)c2scc(C(=O)O)c2n1` [compound 982]: the IC50 reads like this: under setting [1], under 0.05 µM; under setting [2], 0.0204 µM. Regarding `Cc1nc2ccc3c(c2c(=O)n1CCOc1ccc(Cl)cc1-c1cccc(C(=O)O)c1)C(=O)N(C)C3` [compound 2011], the IC50 under setting [3] is 0.529 µM.

`COC(=O)c1csc2c(-c3cc(Cl)ccc3C#CCn3c(C)nc4cnc(N5CCN(CCOC(F)(F)F)CC5)c(C#N)c4c3=O)ccnc12` [compound 1405]: the IC50 under setting [3] is 0.631 µM. As for `Cc1cc(-c2cc(Cl)ccc2OCCn2c(C)nc3cnc(C4CC(F)(F)C4)c(C#N)c3c2=O)c2scc(C(=O)O)c2n1` [compound 928], the IC50 was under 0.05 µM under setting [1] and 0.0387 µM under setting [2].
